The target in data set [1] is T1, human glucocorticoid receptor (GR) (Homo sapiens, UniProt P04150).
T1 sequence (P04150 1-777): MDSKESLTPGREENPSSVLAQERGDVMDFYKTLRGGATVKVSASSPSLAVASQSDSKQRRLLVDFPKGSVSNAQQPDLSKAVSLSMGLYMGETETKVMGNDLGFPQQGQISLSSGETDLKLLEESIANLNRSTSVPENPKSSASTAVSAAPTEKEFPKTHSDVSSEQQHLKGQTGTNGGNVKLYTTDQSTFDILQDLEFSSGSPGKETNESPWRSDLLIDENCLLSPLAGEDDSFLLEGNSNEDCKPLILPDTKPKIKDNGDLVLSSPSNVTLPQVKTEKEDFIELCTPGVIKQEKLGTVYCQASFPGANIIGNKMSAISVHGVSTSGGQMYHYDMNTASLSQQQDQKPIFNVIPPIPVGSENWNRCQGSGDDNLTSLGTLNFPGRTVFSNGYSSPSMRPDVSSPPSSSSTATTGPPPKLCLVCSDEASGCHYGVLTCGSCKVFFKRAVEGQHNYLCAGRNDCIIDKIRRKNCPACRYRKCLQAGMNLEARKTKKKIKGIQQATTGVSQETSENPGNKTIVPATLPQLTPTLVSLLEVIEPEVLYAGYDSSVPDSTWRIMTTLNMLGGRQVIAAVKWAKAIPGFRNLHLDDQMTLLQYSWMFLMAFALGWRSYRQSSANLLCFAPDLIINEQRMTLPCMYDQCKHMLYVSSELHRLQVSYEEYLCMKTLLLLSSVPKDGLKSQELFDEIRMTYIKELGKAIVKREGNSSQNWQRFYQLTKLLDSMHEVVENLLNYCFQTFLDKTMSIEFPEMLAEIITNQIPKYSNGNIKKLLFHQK
Description: Binding activity on human nuclear receptor GR ([3H]-dexamethasone competition). As to conditions: mean ± SD, n = 4.
Description: Buffer solution is composed of 25 mM NaPO4, 20 mM NaMoO4, 10 mM KF and 10% glycerol (pH=7.3) and stored under 4° C. Stock solution is prepared with CHAPS and DTT and stored under −20° C. […] Add 2.5 μl/hole into 96-pore plate. Take out appropriate amount of buffer solution reserve into solution to make the final concentration of CHAPS and DDT to become 0.25 mM and 2 mM respectively. Add protease inhibitors (aprotinin and leupeptin) to make its final concentration to become 1 μg/μl, and place in an ice bath. […] On the next day, add 25 μl of hydroxyapatite suspension into each pore and mix with shaking. After incubating for 10 min, separate by centrifuge for 3 min at 2500 rpm. The precipitate is washed with 100 μl of buffer solution and separated by centrifuge twice. Add 150 μl of scintillation solution (from Perkin Elmer) into each pore, mix with shaking and count by MicroBeta counter.

Another data set addresses T2, estrogen receptor ERα (Homo sapiens, UniProt P03372).
T2 sequence (P03372 1-595): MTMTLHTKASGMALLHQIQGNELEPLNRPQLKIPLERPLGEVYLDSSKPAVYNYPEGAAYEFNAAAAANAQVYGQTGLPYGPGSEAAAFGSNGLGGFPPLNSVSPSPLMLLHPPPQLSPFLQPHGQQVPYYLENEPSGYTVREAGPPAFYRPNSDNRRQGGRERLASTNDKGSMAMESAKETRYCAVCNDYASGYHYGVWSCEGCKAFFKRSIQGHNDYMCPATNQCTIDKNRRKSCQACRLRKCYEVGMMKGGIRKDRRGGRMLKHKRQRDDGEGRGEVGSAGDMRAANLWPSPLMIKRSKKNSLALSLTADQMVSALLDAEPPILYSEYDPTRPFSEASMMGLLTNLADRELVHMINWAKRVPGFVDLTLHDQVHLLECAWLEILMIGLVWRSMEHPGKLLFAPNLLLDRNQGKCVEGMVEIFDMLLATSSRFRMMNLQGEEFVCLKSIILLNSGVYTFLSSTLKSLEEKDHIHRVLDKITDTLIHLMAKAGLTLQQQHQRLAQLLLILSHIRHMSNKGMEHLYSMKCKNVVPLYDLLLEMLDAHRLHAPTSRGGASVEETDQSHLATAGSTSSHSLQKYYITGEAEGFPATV
Description: Binding activity on human nuclear receptor ERα. As to conditions: mean ± SD, n = 4. As for the experimental part: (§1) Buffer solution is composed of 25 mM NaPO4, 20 mM NaMoO4, 10 mM KF and 10% glycerol (pH=7.3) and stored under 4° C. Stock solution is prepared with CHAPS and DTT and stored under −20° C. […] Add 2.5 μl/hole into 96-pore plate. Take out appropriate amount of buffer solution reserve into solution to make the final concentration of CHAPS and DDT to become 0.25 mM and 2 mM respectively. Add protease inhibitors (aprotinin and leupeptin) to make its final concentration to become 1 μg/μl, and place in an ice bath. After adding human nuclear receptor GR (1:8), PR (1:100), ER (1:2000), AR (1:200) and MR (1:40) into the reaction system respectively, adequately mix suitable quantity of [^3H]-dexamethasone, [^3H]-progesterone, [^3H]-estradiol and [^3H]-DHT (from Amersham), rapidly add into 96-pore plate (100 μl/pore) and incubate overnight under 4° C. On the next day, add 25 μl of hydroxyapatite suspension into each pore and mix with shaking. After incubating for 10 min, separate by centrifuge for 3 min at 2500 rpm. The precipitate is washed with 100 μl of buffer solution and separated by centrifuge twice. Add 150 μl of scintillation solution (from Perkin Elmer) into each pore, mix with shaking and count by MicroBeta counter.

Another data set has as its target estrogen receptor ERβ (Homo sapiens, UniProt Q92731). Description: Binding activity on human nuclear receptor ERβ. As to conditions: mean ± SD, n = 4. The protocol:
as §1

The nature of data set [2]: MTT toxicity on PBMC infected by HIV-1 AZT-resistant strain 018c. As to conditions: human. As for the experimental part: Collect cells with curette, infect cells with 10^−2 AZT sensitive (018a) or AZT resistant (018c) virus strain liquid, and adsorb for 2 hours, Wash off unabsorbed virus with 1640 culture medium without serum, prepare cells infected by virus to 1×10^6/ml with culture solution, and inoculate on 96-pore culture plate, 100 μl/pore. […] Set cell control group and virus infected cell control group. Incubate under 37° C. and 5% CO2. On the fourth day (96 hours), pipette out the supernatant liquid and store under −20° C. for determination of HIV-1 P24 antigen titer and calculation of drug inhibitory action. Add MTT staining to cells for determination of cytotoxicity. Determination of cytotoxicity by MTT staining: Add 10 μl of 5 mg/ml MTT stain into each pore, continue to incubate under 37° C., 5% CO2 and saturated humidity for 4 hours. […] Determine the HIV-1 P24 antigen titer according to the operation procedure provided by the HIV-1 P24 antigen reagent kit. Compare the drug-added group with virus control group. […] Calculation method of 50% toxic concentration (CC50), 50% effective concentration (EC50) and selection index (SI): […]

Each structure is given as a SMILES string. In brackets after ≈: the same amount, converted by molar mass.

estrogen receptor ERβ, sequence (Q92731 whole entry): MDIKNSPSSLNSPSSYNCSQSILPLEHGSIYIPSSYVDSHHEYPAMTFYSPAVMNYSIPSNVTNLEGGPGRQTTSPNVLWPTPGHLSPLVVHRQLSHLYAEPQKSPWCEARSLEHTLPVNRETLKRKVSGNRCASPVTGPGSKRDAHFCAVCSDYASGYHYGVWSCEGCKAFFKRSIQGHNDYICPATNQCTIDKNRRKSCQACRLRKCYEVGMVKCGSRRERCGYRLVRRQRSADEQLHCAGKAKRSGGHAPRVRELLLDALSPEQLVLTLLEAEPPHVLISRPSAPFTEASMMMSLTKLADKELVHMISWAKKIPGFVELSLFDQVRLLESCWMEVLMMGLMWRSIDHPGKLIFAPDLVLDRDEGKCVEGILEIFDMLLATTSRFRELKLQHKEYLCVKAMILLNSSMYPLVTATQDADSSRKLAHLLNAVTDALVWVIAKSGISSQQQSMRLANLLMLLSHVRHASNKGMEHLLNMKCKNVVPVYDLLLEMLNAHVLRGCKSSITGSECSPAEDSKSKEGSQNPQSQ

On to `CC#C[C@]1(O)CC[C@H]2[C@@H]3CCC4=CC(=O)CCC4=C3[C@@H](c3ccc(N(C)C4CCCCC4)cc3)C[C@@]21C` [Cymipristone, 11β-[4-(N-methyl-N-cyclohexylamino)phenyl]-17α-(1-propynyl)-17β-hydroxyl-4,9-estradiene-3-one], for which the IC50 (usually the concentration that inhibits the measured activity by half) in data set [1] worked out at 0.45 ± 0.069 nM; at estrogen receptor ERα, 516 ± 62.8 nM; at estrogen receptor ERβ, 278.7 ± 0.63 nM. Further, the 50% cytotoxic concentration (CC50) (in general, the concentration that lowers cell viability or growth by half) at 96 h came to 103 µg/mL (≈ 207 µM) in data set [2] (50% toxic concentration CC50, Experiment 1) and 104 µg/mL (≈ 210 µM) in data set [2] (50% toxic concentration CC50, Experiment 2).

The values above are taken from US20090111781A1, “Use of Cymipristone Type Compounds in Aids Treatment” (SHANGHAI THREE-ALLIANCE BIOTECHNOLOGIES CO., LTD., priority 2005, published 2009).
